Paper PMC5244392, “Interspecies cathelicidin comparison reveals divergence in antimicrobial activity, TLR modulation, chemokine induction and regulation of phagocytosis” (Scientific Reports, 2017)

How the values were obtained:
RAW264.7 cells = experiment: Cytotoxicity (WST-1 mitochondrial activity, PI staining); format: cell-based, murine; conditions: 24 h, peptide 0.08-20 μM; WST-1 and PI staining
Protocol: WST-1 reagent was obtained from Roche (Basel, Switzerland). RAW264.7 cells were incubated with cathelicidins for 24 h, after which the supernatant was removed and replaced with 10% WST-1 reagent in culture medium. After 20 minutes, absorbance was measured at 450 nm with a FLUOstar Omega microplate reader (BMG Labtech GmbH, Ortenberg, Germany) and was corrected for absorbance at 630 nm. Non-treated control cells were defined as 100% mitochondrial activity.
In addition, cells were detached after peptide exposure and stained with propidium iodide (PI) (BD bioscience, San Jose, CA, USA). Percentages of PI positive (i.e. dead) cells were determined with flow cytometry (BD FACSCanto II flow cytometer (BD Biosciences)) and analyzed with FlowJo software (Ashland, OR, USA). […]
Supplementary Figure 3: Cytotoxicity of cathelicidins on RAW264.7 cells
(A) RAW264.7 cells were incubated for 24 hours with diﬀerent cathelicidins (0.08 µM, 0.31 µM, 1.25 µM, 5 µM, and 20 µM), after which they were incubated with WST-1 reagent for 20 minutes to measure the mitochondrial activity. No peptide control was set to 100% mitochondrial activity. Dotted line represents 80% mitochondrial activity. Results are presented as average +/- SEM (N = 4).
(B) RAW264.7 cells were incubated with diﬀerent cathelicidins (0.31 µM, 1.25 µM, 5 µM, and 20 µM). Cells were stained for PI to detect dead cells. […]

[1] = tested on: E. coli ATCC 25922 and S. aureus ATCC 29213; experiment: Bacterial growth delay, additional strains (Supplementary Fig. S1); format: cell-based, Escherichia coli; Staphylococcus aureus; conditions: E. coli ATCC 25922 and S. aureus ATCC 29213 compared with E. coli O78 and MRSA; MHB or DMEM + FCS; N = 2
Protocol: E. coli O78 (Zoetis Animal Health, Kalamazoo, MI, USA), E. coli ATCC 25922, Staphylococcus aureus ATCC 29213, and methicillin resistant Staphylococcus aureus (MRSA) (WKZ-2, human clinical isolate) were grown overnight from a glycerol stock in Mueller Hinton Broth (MHB) (Becton Dickinson, USA). Before use, bacteria were grown to mid-log phase in MHB for 2 hours at 37 °C, 200 RPM. Murine RAW264.7 macrophages (ATCC-TIB-71) were obtained from the American Type Culture Collection (ATCC, Manassas, VA, USA) and cultured in DMEM (41966-029; Thermo Fisher Scientific, Waltham, MA, USA) supplemented with 10% FCS (Bodinco B.V., Alkmaar, the Netherlands) (DMEM + FCS) at 37 °C, 5.0% CO2. […]
Peptides (0.63 to 40 μM) and bacteria mid-log cultures (2 * 10^6 CFU/ml) were prepared in MHB or DMEM + FCS and mixed (100 μl peptide + 100 μl bacterial culture) in a Bioscreen C analyzer plate (Oy Growth Curves Ab Ltd, Helsingfors, Finland). […] The OD was measured every 15 minutes using a wideband filter (450–580 nm) to measure bacterial growth. The time needed grow above an OD of 0.6 was determined for all concentrations. […]
E. coli ATCC 25922 and S. aureus ATCC 29213 (1x10^6 CFU/ml) were grown in MHB or DMEM+FCS for 16 hours under constant shak ing (200 RPM) in the presence of diﬀerent concentration of cathelicidins (0.31 µM, 0.63 µM, 1.25 µM, 2.5 µM, 5 µM, 10 µM, and 20 µM). The OD was measured ever y 15 minutes. […]

S. aureus = experiment: MBC by plating wells without visible growth, S. aureus; format: cell-based, Staphylococcus aureus; conditions: S. aureus in DMEM; results not shown
Protocol: In order to compare our Cmax with MBC values, wells without visible bacterial growth were plated out on TSA plates and incubated o/n at 37 °C to determine the presence of viable bacteria.
The antimicrobial capacities were tested under the same conditions and expressed as growth delay instead of the more classical MIC/MBC determination using broth dilution assays. […] The fact that DMEM medium makes S. aureus susceptible to PR-39 is surprising since this peptide is thought to require active uptake by the SbmA transporter, only present in Gram – bacteria. The results obtained in this work, might indicate that the peptide possibly switches to a different mechanism of action with initially a bacteriostatic effect, but more thorough studies are required to elucidate the details of these initial observations.

Substance	Cytotoxicity to RAW264.7 cells, in words (RAW264.7 cells)	Fold difference in Cmax with other bacterial strains [1]	Fold higher MBC than Cmax (S. aureus) [fold]
Ac-GRFRRLRKKTRKRLKKIGKVLKWIPPIVGSIPLGCG [PMAP-36, porcine α-helical cathelicidin, N-acetylated, 36 residues, charge +13]	some cytotoxicity, but only at the highest concentration	–	–
RRRPRPPYLPRPRPPPFFPPRLPPRIPPGFPPRFPPRFP [PR-39, porcine proline-rich cathelicidin forming a polyproline helix, 39 residues, charge +10]	–	8–16 fold	16
